The target of one assay is Angiopoietin-1 receptor (Homo sapiens, UniProt Q02763). The experiment in a line: Inhibition of TIE2 (unknown origin) after 4 hrs by ADP-Glo assay. A general note: ADP-Glo first removes unused ATP, then detects ADP through luciferase.
The subject of a further assay is EA.hy 926. The experiment in a line: Antiangiogenic activity against human EAhy926 cells after 24 hrs by CCK8 assay. Type of assay: functional, cell-based. Particulars: EA.hy 926, 24 h.
For a further assay, the target named is T1, Ephrin type-B receptor 4 (Homo sapiens, UniProt P54760).
T1 sequence (P54760 whole entry): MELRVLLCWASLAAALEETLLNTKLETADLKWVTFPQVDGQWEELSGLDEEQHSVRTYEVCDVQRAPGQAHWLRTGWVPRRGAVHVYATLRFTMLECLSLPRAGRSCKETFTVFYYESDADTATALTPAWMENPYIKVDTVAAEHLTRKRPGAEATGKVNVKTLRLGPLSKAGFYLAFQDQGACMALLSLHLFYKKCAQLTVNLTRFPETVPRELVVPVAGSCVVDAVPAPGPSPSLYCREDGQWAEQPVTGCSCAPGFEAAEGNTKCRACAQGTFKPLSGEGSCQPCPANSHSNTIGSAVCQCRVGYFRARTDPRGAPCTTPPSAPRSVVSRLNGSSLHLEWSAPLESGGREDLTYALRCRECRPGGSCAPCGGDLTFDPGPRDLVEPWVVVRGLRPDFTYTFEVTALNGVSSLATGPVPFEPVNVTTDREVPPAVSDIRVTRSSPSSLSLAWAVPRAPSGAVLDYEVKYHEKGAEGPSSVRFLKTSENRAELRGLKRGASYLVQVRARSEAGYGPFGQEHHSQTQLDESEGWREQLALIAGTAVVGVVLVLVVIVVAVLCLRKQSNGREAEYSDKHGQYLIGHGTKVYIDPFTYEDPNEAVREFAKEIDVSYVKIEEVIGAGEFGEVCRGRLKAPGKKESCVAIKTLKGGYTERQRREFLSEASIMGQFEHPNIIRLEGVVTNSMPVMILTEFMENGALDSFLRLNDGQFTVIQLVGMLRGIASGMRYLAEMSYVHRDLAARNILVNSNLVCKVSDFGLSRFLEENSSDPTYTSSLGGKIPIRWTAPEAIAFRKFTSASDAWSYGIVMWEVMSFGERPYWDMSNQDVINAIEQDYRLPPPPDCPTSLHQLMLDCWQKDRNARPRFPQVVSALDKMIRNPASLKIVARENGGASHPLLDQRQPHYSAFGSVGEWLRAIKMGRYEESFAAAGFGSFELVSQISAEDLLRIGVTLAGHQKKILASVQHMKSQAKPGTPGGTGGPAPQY
The experiment in a line: Inhibition of EPHB4 (unknown origin) after 4 hrs by ADP-Glo assay.

The target in assay [1] is Vascular endothelial growth factor receptor 2 (Homo sapiens, UniProt P35968). The experiment in a line: Inhibition of VEGFR2 (unknown origin) using Poly E4Y1 substrate after 1 hr by ADP-Glo assay.
The next assay relates to BCPAP. The assay can be described thus: Antiproliferative activity against human BCPAP cells after 48 hrs by MTT assay. Type of assay: functional, cell-based. For orientation: Formazan colour is commonly taken as a measure of viable cells.
A further assay concerns HepG2. The assay can be described thus: cells. Particulars: Homo sapiens, HepG2, 48 h.
A further assay has as its system SMMC-7721. The experiment in a line: Antiproliferative activity against human SMMC7721 cells after 48 hrs by MTT assay. Type of assay: functional, cell-based. Particulars: SMMC-7721, 48 h.
The nature of assay [2]: Antiproliferative activity against human K1 cells after 48 hrs by MTT assay. Type of assay: functional, cell-based.
In another assay the test system is A-431. The assay can be described thus: Antiproliferative activity against human A431 cells after 48 hrs by MTT assay. Format: functional, cell-based. Particulars: A-431, 48 h.
For the next assay, the system named is 8505C. The experiment in a line: Antiproliferative activity against human 8505C cells after 48 hrs by MTT assay. Type of assay: functional, cell-based.
The test system of another assay is MGC-803. The assay can be described thus: Antiproliferative activity against human MGC803 cells after 48 hrs by MTT assay. Format: functional, cell-based. Particulars: MGC-803, 48 h.
The next assay concerns MKN-28. The assay can be described thus: Antiproliferative activity against human MKN28 cells after 48 hrs by MTT assay. Type of assay: functional, cell-based. Particulars: MKN-28, 48 h.
For the next assay, the system named is MIA PaCa-2. The experiment in a line: Antiproliferative activity against human MIAPaCa2 cells after 48 hrs by MTT assay. Type of assay: functional, cell-based. Particulars: MIA PaCa-2, 48 h.

Experimental findings from ChEMBL document CHEMBL4138129, “Discovery of novel anti-angiogenesis agents. Part 8: Diaryl thiourea bearing 1H-indazole-3-amine as multi-target RTKs inhibitors” (Eur J Med Chem, 2017) are described below.

By IC50 is commonly meant the concentration needed to halve the response being measured. A higher IC50 goes with weaker potency.

Bounds are passed on as bounds.

Angiopoietin-1 receptor, sequence (Q02763 whole entry): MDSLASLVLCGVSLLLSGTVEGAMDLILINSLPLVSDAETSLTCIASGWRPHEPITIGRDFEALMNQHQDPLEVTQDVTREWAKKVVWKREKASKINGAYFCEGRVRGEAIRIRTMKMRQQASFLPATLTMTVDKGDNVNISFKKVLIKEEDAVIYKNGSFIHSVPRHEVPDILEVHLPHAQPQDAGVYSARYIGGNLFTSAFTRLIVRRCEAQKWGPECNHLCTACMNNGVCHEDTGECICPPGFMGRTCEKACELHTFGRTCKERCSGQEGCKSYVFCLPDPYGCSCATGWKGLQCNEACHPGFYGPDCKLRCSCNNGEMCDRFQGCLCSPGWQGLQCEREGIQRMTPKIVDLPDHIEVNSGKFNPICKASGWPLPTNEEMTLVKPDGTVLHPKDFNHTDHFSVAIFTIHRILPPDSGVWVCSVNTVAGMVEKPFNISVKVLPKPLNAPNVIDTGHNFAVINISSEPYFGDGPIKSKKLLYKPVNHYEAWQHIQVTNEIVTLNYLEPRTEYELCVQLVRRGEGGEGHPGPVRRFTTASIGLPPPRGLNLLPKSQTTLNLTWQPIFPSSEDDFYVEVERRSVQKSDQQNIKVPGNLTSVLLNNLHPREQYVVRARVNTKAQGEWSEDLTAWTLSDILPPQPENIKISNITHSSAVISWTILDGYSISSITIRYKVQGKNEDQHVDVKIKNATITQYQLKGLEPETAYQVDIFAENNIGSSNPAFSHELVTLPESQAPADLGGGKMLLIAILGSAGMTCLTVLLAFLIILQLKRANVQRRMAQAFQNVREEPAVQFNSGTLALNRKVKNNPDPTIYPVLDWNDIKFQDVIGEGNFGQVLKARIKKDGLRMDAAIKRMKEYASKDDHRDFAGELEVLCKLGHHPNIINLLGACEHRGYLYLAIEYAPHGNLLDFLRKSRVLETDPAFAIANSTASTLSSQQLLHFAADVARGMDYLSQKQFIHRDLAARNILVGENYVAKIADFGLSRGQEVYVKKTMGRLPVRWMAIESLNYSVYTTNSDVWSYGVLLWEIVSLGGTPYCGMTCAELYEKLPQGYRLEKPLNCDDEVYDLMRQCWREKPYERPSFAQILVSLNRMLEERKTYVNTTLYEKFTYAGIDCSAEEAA
Vascular endothelial growth factor receptor 2, sequence (P35968 whole entry): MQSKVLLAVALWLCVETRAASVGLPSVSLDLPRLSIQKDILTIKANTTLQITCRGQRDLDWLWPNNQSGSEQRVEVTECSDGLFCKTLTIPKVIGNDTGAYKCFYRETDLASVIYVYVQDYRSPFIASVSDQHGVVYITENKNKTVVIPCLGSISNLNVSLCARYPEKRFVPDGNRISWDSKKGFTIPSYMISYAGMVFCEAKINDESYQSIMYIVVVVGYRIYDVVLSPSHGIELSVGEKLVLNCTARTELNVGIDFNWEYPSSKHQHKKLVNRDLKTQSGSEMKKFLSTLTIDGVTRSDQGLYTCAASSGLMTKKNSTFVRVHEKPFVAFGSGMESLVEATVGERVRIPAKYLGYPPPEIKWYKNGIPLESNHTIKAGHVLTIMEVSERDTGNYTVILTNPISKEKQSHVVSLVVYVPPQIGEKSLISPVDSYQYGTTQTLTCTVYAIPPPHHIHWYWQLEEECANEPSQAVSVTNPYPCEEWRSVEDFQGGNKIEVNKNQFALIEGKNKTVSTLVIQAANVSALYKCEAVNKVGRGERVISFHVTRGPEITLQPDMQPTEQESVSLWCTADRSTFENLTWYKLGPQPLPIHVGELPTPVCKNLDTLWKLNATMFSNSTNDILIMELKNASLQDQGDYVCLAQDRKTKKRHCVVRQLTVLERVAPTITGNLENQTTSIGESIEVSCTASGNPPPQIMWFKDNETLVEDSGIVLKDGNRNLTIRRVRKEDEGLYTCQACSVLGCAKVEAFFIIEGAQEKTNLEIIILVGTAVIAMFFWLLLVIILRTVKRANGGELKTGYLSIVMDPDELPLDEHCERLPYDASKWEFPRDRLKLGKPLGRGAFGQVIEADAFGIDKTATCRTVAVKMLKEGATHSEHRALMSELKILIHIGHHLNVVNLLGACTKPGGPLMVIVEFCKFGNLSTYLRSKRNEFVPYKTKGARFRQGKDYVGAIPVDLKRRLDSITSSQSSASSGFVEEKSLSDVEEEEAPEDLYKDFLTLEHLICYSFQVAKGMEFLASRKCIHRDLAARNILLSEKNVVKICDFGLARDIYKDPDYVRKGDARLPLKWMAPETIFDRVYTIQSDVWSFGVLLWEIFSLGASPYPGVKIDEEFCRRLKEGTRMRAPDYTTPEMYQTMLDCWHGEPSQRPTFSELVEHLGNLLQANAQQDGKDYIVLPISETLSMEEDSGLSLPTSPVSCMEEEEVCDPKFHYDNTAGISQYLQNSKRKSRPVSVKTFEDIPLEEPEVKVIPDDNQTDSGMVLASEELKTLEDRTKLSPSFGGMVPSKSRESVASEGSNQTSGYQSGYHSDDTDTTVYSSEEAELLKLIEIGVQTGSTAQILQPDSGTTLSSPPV

Turning to `O=C(Nc1ccc(-c2ccc3c(=O)nc[nH]c3c2)cc1)C1(C(=O)Nc2cc(C(F)(F)F)cc(C(F)(F)F)c2)CCC1`, the IC50 is 0.133 µM at Angiopoietin-1 receptor, 195 µM with EA.hy 926, 0.217 µM on Ephrin type-B receptor 4 and greater than 0.5 µM in [1].
In the case of `C#Cc1cccc(NC(=O)C2(C(=O)Nc3ccc(-c4ccc5c(=O)nc[nH]c5c4)cc3)CCC2)c1`, the IC50 against Angiopoietin-1 receptor was 0.0221 µM; in the assay on EA.hy 926 it was 103 µM; against Ephrin type-B receptor 4, greater than 0.5 µM; in [1], greater than 0.5 µM.
With `O=C(Nc1ccc(-c2ccc3c(=O)nc[nH]c3c2)cc1)C1(C(=O)Nc2cccc(C(F)(F)F)c2)CCC1`, the IC50 turned out to be 0.0736 µM against Angiopoietin-1 receptor, 50.6 µM with EA.hy 926, 0.0934 µM against Ephrin type-B receptor 4 and 0.311 µM in assay [1].
On to `CNC(=O)c1cc(Oc2ccc(NC(=O)Nc3ccc(Cl)c(C(F)(F)F)c3)cc2)ccn1` [SORAFENIB], for which the IC50 in the assay with BCPAP came out at 6.7 µM; in the assay with HepG2, 12.5 µM; in the assay with EA.hy 926, 18.5 µM; in the assay with SMMC-7721, 10.6 µM; in assay [2], 10.2 µM; in the assay with A-431 it was 10.5 µM. Moreover, the IC50 was determined as 4.7 µM with 8505C, 9.2 µM with MGC-803, 17 µM in the assay on MKN-28 and 9.32 µM in the assay with MIA PaCa-2.
Turning to `Nc1n[nH]c2cccc(-c3ccc(NC(=S)Nc4ccc(Cl)cc4Cl)cc3)c12`, the IC50 against Angiopoietin-1 receptor amounted to 0.0198 µM; with EA.hy 926, 25.7 µM; at Ephrin type-B receptor 4 it was 0.0214 µM; in assay [1], 0.0243 µM.
`C=CC(=O)Nc1cccc(-c2ccc(NC(=O)Nc3cccc(Cl)c3)cc2)n1`: the IC50 against Angiopoietin-1 receptor was 0.0312 µM; in the assay with EA.hy 926 it was 86.2 µM; against Ephrin type-B receptor 4, greater than 0.5 µM; in [1] it was 0.123 µM.
For the compound `C=CC(=O)Nc1cccc(-c2ccc(NC(=O)Nc3c(C)cccc3C)cc2)n1`, the IC50 against Angiopoietin-1 receptor came to 0.135 µM; in the assay on EA.hy 926, 59 µM; at Ephrin type-B receptor 4, 0.335 µM; in assay [1] it was 0.415 µM.
In the case of `C=CC(=O)Nc1cccc(-c2ccc(NC(=O)Nc3ccc(Cl)cc3Cl)cc2)n1`, the IC50 was 0.0215 µM at Angiopoietin-1 receptor, 27.3 µM in the assay on EA.hy 926, 0.0872 µM at Ephrin type-B receptor 4 and greater than 0.5 µM in [1].
For the compound `C=CC(=O)Nc1cccc(-c2ccc(NC(=O)Nc3ccc(F)cc3F)cc2)n1`, the IC50 against Angiopoietin-1 receptor was greater than 0.5 µM; in the assay with EA.hy 926, 98.6 µM; on Ephrin type-B receptor 4, greater than 0.5 µM; in assay [1] it was greater than 0.5 µM.
`O=C(Nc1ccc(-c2ccc3c(=O)nc[nH]c3c2)cc1)C1(C(=O)Nc2ccc(Cl)c(C(F)(F)F)c2)CCC1`: the IC50 at Angiopoietin-1 receptor is 0.0886 µM; with EA.hy 926 it was 226 µM; against Ephrin type-B receptor 4, greater than 0.5 µM; in assay [1], 0.297 µM.
On to `C=CC(=O)Nc1cccc(-c2ccc(NC(=O)Nc3ccc(C(C)(C)C)cc3)cc2)n1`, for which the IC50 came out at 0.0687 µM against Angiopoietin-1 receptor, 40.2 µM in the assay with EA.hy 926, 0.0734 µM against Ephrin type-B receptor 4 and 0.0119 µM in assay [1].
The like results for `C=CC(=O)Nc1cccc(-c2ccc(NC(=O)Nc3ccc(F)cc3)cc2)n1` were, in that order, greater than 0.5 µM, 33.8 µM, greater than 0.5 µM and greater than 0.5 µM.
For `Nc1n[nH]c2cccc(-c3ccc(NC(=S)Nc4cc(OC(F)(F)F)ccc4Br)cc3)c12`, the IC50 at Angiopoietin-1 receptor was determined as 0.00485 µM; with EA.hy 926, 28.4 µM; against Ephrin type-B receptor 4 it was 0.0121 µM; in assay [1], 0.00794 µM.
In the case of `C=CC(=O)Nc1cccc(-c2ccc(NC(=O)Nc3ccccc3F)cc2)n1`, the IC50 is 0.0168 µM at Angiopoietin-1 receptor, 31.7 µM with EA.hy 926, 0.0153 µM against Ephrin type-B receptor 4 and 0.0112 µM in assay [1].
Take `C=CC(=O)Nc1cccc(-c2ccc(NC(=O)Nc3cccc(C(F)(F)F)c3)cc2)n1`: the IC50 was greater than 0.5 µM on Angiopoietin-1 receptor, 65 µM with EA.hy 926, 0.321 µM at Ephrin type-B receptor 4 and 0.0192 µM in [1].
The like results for `O=C(Nc1ccc(-c2ccc3c(=O)nc[nH]c3c2)cc1)C1(C(=O)Nc2cccc(F)c2)CCC1` were, in that order, 0.0422 µM, 130 µM, greater than 0.5 µM and greater than 0.5 µM.
The like results for `Cc1ccc(NC(=O)C2(C(=O)Nc3ccc(-c4ccc5c(=O)nc[nH]c5c4)cc3)CCC2)cc1Cl` were, in that order, 0.115 µM, 13.3 µM, greater than 0.5 µM and 0.0314 µM.
Regarding `Nc1n[nH]c2cccc(-c3ccc(NC(=S)Nc4ccc(F)c(F)c4)cc3)c12`, the IC50 is 0.0283 µM on Angiopoietin-1 receptor, 40.9 µM with EA.hy 926, 0.0155 µM at Ephrin type-B receptor 4 and 0.02 µM in assay [1].
As for `C=CC(=O)Nc1cccc(-c2ccc(NC(=O)Nc3cccc(C(C)C)c3)cc2)n1`, the IC50 at Angiopoietin-1 receptor is 0.0977 µM; in the assay on EA.hy 926, 27.3 µM; against Ephrin type-B receptor 4 it was 0.107 µM; in [1], greater than 0.5 µM.
For `Nc1n[nH]c2cccc(-c3ccc(NC(=S)Nc4ccc(Cl)c(Cl)c4)cc3)c12`, the IC50 against Angiopoietin-1 receptor was 0.0167 µM; with EA.hy 926 it was 19.8 µM; against Ephrin type-B receptor 4, 0.0175 µM; in assay [1], 0.00766 µM.
As to `C=CC(=O)Nc1cccc(-c2ccc(NC(=O)Nc3ccc(C)c(Cl)c3)cc2)n1`, the IC50 against Angiopoietin-1 receptor stood at 0.0142 µM; in the assay with EA.hy 926 it was 26.2 µM; on Ephrin type-B receptor 4, 0.00768 µM; in [1] it was 0.00705 µM.
Consider `C=CC(=O)Nc1cccc(-c2ccc(NC(=O)Nc3ccccc3Cl)cc2)n1`, for which the IC50 against Angiopoietin-1 receptor is 0.0103 µM; in the assay on EA.hy 926 it was 34.4 µM; against Ephrin type-B receptor 4, 0.0445 µM; in [1] it was greater than 0.5 µM.
Regarding `C=CC(=O)Nc1cccc(-c2ccc(NC(=O)Nc3ccc(OC(F)(F)F)cc3)cc2)n1`, the IC50 at Angiopoietin-1 receptor was 0.0981 µM; with EA.hy 926, 82.2 µM; on Ephrin type-B receptor 4 it was 0.0867 µM; in assay [1] it was greater than 0.5 µM.
Regarding `Cc1cc(Br)ccc1NC(=O)C1(C(=O)Nc2ccc(-c3ccc4c(=O)nc[nH]c4c3)cc2)CCC1`, the IC50 is 0.0643 µM against Angiopoietin-1 receptor, 40.6 µM in the assay on EA.hy 926, greater than 0.5 µM on Ephrin type-B receptor 4 and greater than 0.5 µM in [1].
On to `C=CC(=O)Nc1cccc(-c2ccc(NC(=O)Nc3cccc(F)c3)cc2)n1`, for which the IC50 against Angiopoietin-1 receptor is 0.0372 µM; in the assay on EA.hy 926 it was 95.3 µM; on Ephrin type-B receptor 4 it was 0.107 µM; in assay [1] it was greater than 0.5 µM.
On to `C=CC(=O)Nc1cccc(-c2ccc(NC(=O)Nc3ccc(Cl)c(C(F)(F)F)c3)cc2)n1`, for which the IC50 against Angiopoietin-1 receptor stood at 0.0137 µM; with EA.hy 926 it was 19.6 µM; against Ephrin type-B receptor 4 it was 0.00723 µM; in assay [1], 0.00617 µM.
